Experimental data from patent US20210254056A1, “IDENTIFICATION AND TARGETED MODULATION OF GENE SIGNALING NETWORKS” (CAMP4 THERAPEUTICS CORPORATION, priority 2017, published 2021).

Tests used:
TF1 cells = experiment: Biological activity of maximal compound dosages in TF1 cells; format: cell-based; conditions: 10 μM dose
Description: (§1) The stock for each compound was at 10 mM and were diluted to 100 μM with RMPI+GCMSF (2% DMSO). Cells were collected and resuspended in 8 mL of RPMI+GMCSF at a concentration of 1×10^6 cells/mL. For the TF1 cells, at each well of a 6-well plate were added 1 mL of cells, 300 μL of 100 μM compound dilution, and 1.7 mL of RMPI+GCMSF+1.5% DMSO (1% final DMSO concentration in 3 mL total). One mL of the CI-CB-CD34+ cells, 300 μL of 100 μM compound dilution, and 700 μL of RMPI+GCMSF ([…]) were added to each well of a 6-well plate.
(§2) Compound dilutions were performed as described in Example 1. […] In a 6-well format, there were 1 million cells/well=1 million cells/ml=1000 cells/pl. […].

CI-CB-CD34+ cells = experiment: Biological activity of maximal compound dosages in CI-CB-CD34+ cells; format: cell-based, human; conditions: 10 μM dose
Description: as §1, §2

[1] = system: primary human hepatocytes; experiment: RNA-seq of primary human hepatocytes treated with 39 small molecules (pilot and validation); conditions: for significant modulation of gene expression: RNA-seq, p-value≤0.05, primary human hepatocytes, the modulated genes are listed in the block; for Number (#) of genes having significantly changed expression: pilot RNA-seq study of Example 2, significance: FPKM≥0.5, log 2(fold change)≥1, q-value ≤0.05
[2] = system: primary human hepatocytes

SMILES	Log2 fold changes in gene expression: CYP2C19 [2]	Log2 fold changes in gene expression: CYP3A4 [2]	response of TF1 cells (biological activity, cell viability) (TF1 cells)	biological activity of CD34+ cells (cell viability) (CI-CB-CD34+ cells)	significant modulation of gene expression [1]	Number (#) of genes having significantly changed expression [1]
COc1ccc(C2=N[C@@H](c3ccc(Cl)cc3)[C@@H](c3ccc(Cl)cc3)N2C(=O)N2CCNC(=O)C2)c(OC(C)C)c1 (racemic) [Nutlin 3]	–	–	did not significantly respond	reduced biological activity	–	–
Cc1ccc(-c2cn3c4c(sc3n2)CCCC4)cc1 [Cyclic-pifithrin alpha, Cyclic Pifithrin-a]	–	–	did not significantly respond	–	–	–

Now from value to compound, other results behind:

Log2 fold changes in gene expression: CYP2C19 [2]	Log2 fold changes in gene expression: CYP3A4 [2]	SMILES	response of TF1 cells (biological activity, cell viability) (TF1 cells)	biological activity of CD34+ cells (cell viability) (CI-CB-CD34+ cells)	significant modulation of gene expression [1]	Number (#) of genes having significantly changed expression [1]
0.04	0	CCN1CCCC1CNC(=O)c1cc(S(N)(=O)=O)ccc1OC (stereo not drawn) [MT-277, Sulpiride]	–	–	significantly (p-value≤0.05) modulate	8
−0.03	0.11	C#C[C@]1(O)CC[C@H]2[C@@H]3CCC4=Cc5oncc5C[C@]4(C)[C@H]3CC[C@@]21C [MT-487, Danazol]	–	–	significantly (p-value≤0.05) modulate	5
−0.03	0.4	CCc1nn(CCCN2CCN(c3cccc(Cl)c3)CC2)c(=O)n1CCOc1ccccc1 [MT-505, Nefazodone]	–	–	significantly (p-value≤0.05) modulate	18
